For six compounds, GI50 and TGI results are on record in PubChem BioAssay (NCI).

Values joined by “and” are separate entries in the source; they are usually repeats but may differ in a detail not shown here. Equal values may be shown once.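 Protocol summary: plate cells (96-well), add compound at 5 concentrations, incubate 48 h, interpolate endpoints linearly. GI50 marks 50% less growth. TGI is the concentration that stops growth completely.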

Among the test systems are RPMI-8226 leukemia; IGROV1 ovarian; A498 renal; SK-MEL-5 melanoma; 786-0 renal; SNB-19 CNS; CCRF-CEM leukemia; NCI-H23 lung; SF-268 CNS; CAKI-1 renal.
What all share (experiment): NCI-60 cell line screen, 48 h

With `COc1cc(C2C3=C(COC3=O)Nc3cc4c(cc32)OCO4)cc2c1OCO2` (configuration not stated), the GI50 in the assay on RPMI-8226 leukemia was 68 nM; with IGROV1 ovarian it was 127 nM; with A498 renal it was 27.6 nM; in the assay on SK-MEL-5 melanoma it was 101 nM; in the assay on 786-0 renal it was 138 nM; in the assay on SNB-19 CNS it was 143 nM. The GI50 is 69.8 nM with CCRF-CEM leukemia, 75.7 nM with NCI-H23 lung, 83.4 nM in the assay with SF-268 CNS and 156 nM in the assay with CAKI-1 renal. For the same compound, the TGI is above 100000 nM with RPMI-8226 leukemia; above 100000 nM with IGROV1 ovarian; 120 nM with A498 renal; 374 nM with SK-MEL-5 melanoma; above 100000 nM in the assay with 786-0 renal; above 100000 nM in the assay on SNB-19 CNS. Further, the TGI with CCRF-CEM leukemia, in the assay with SF-268 CNS and in the assay with CAKI-1 renal was above 100000 nM throughout.
`Clc1ccc(C2=NOC3C4CCC(C4)C23)cc1` (configuration not stated): the TGI in the assay with RPMI-8226 leukemia, with IGROV1 ovarian, in the assay on A498 renal, in the assay with SK-MEL-5 melanoma, in the assay with 786-0 renal and in the assay with SNB-19 CNS was above 100000 nM in each case. Further, the TGI in the assay on CCRF-CEM leukemia, in the assay with NCI-H23 lung, with SF-268 CNS and in the assay with CAKI-1 renal was above 100000 nM throughout.
In the case of `Oc1ccccc1C=Nc1ccccc1N=Cc1ccccc1O.[Cu+2]`, the GI50 in the assay on RPMI-8226 leukemia is 2090 nM; in the assay with IGROV1 ovarian, 3270 nM; in the assay with A498 renal it was 7660 nM; in the assay with SK-MEL-5 melanoma, 1660 nM; with 786-0 renal, 10800 nM; with SNB-19 CNS it was 13000 nM. Moreover, the GI50 was 4160 nM with CCRF-CEM leukemia, 3160 nM with NCI-H23 lung, 4350 nM in the assay with SF-268 CNS and 2740 nM with CAKI-1 renal. The TGI in the assay with RPMI-8226 leukemia was 40800 nM; with IGROV1 ovarian, 20100 nM; in the assay on A498 renal, 20800 nM; with SK-MEL-5 melanoma, 3460 nM; with 786-0 renal it was 24700 nM; in the assay on SNB-19 CNS, 26300 nM. Further, the TGI in the assay on CCRF-CEM leukemia is above 100000 nM; with NCI-H23 lung it was 14000 nM; in the assay with SF-268 CNS, 17500 nM; in the assay with CAKI-1 renal, 12400 nM.
As to `O=C1N[C@H]2[C@H](O)[C@H](O)[C@@H](O)[C@H](O)[C@@H]2c2cc3c(c(O)c21)OCO3`, the GI50 in the assay with RPMI-8226 leukemia is 224 nM and 842 nM; in the assay on IGROV1 ovarian, 349 nM and 757 nM; with A498 renal, 230 nM and 796 nM; with SK-MEL-5 melanoma it was 127 nM; in the assay with 786-0 renal, 324 nM and 39.6 nM; in the assay on SNB-19 CNS it was 172 nM and 125 nM. Moreover, the GI50 is 137 nM in the assay with CCRF-CEM leukemia; 241 nM and 375 nM in the assay on NCI-H23 lung; 269 nM and 1360 nM in the assay with SF-268 CNS; 682 nM in the assay on CAKI-1 renal. For the same compound, the TGI with SNB-19 CNS is 939 nM and 197 nM; in the assay with CCRF-CEM leukemia, 767 nM and 485 nM; in the assay with NCI-H23 lung it was 712 nM and 2180 nM and 677 nM.
Take `CC(OC(=O)N(N(CCCl)S(C)(=O)=O)S(C)(=O)=O)c1ccc([N+](=O)[O-])cc1` (configuration not stated): the GI50 was above 40400 nM with RPMI-8226 leukemia; above 96600 nM in the assay with IGROV1 ovarian; 1700 nM in the assay on A498 renal; 16100 nM in the assay on SK-MEL-5 melanoma; 44700 nM in the assay on 786-0 renal; above 88900 nM with SNB-19 CNS. The GI50 was 179 nM with CCRF-CEM leukemia, 39100 nM in the assay with NCI-H23 lung, above 100000 nM in the assay on SF-268 CNS and 64300 nM with CAKI-1 renal. For the same compound, the TGI is above 61400 nM in the assay with RPMI-8226 leukemia; above 100000 nM in the assay on IGROV1 ovarian; 43300 nM in the assay on A498 renal; 44700 nM with SK-MEL-5 melanoma; above 100000 nM in the assay on 786-0 renal; above 100000 nM in the assay on SNB-19 CNS. For the same compound, the TGI in the assay on CCRF-CEM leukemia is 15900 nM; in the assay with NCI-H23 lung, above 100000 nM; with SF-268 CNS it was above 100000 nM; with CAKI-1 renal it was above 100000 nM.
With `CN(C)c1ccc(C(=C2C=CC(=[N+](C)C)C=C2)c2ccccc2Cl)cc1`, the GI50 in the assay on RPMI-8226 leukemia was 184 nM; with IGROV1 ovarian, 365 nM; in the assay with A498 renal, 289 nM; with SK-MEL-5 melanoma it was 301 nM; in the assay with 786-0 renal, 341 nM; with SNB-19 CNS, 348 nM. The GI50 in the assay on CCRF-CEM leukemia was 402 nM; with NCI-H23 lung, 282 nM; in the assay on SF-268 CNS it was 379 nM; in the assay with CAKI-1 renal, 455 nM. For the same compound, the TGI with RPMI-8226 leukemia came to 893 nM; in the assay on IGROV1 ovarian, 1340 nM; with A498 renal, 1040 nM; in the assay with SK-MEL-5 melanoma, 1050 nM; in the assay on 786-0 renal it was 1130 nM; in the assay on SNB-19 CNS, 1290 nM. The TGI in the assay on CCRF-CEM leukemia was 5060 nM; with NCI-H23 lung it was 1280 nM; with SF-268 CNS, 1410 nM; with CAKI-1 renal, 2760 nM.
